Test results taken from paper PMC5656596, “Yucasin DF, a potent and persistent inhibitor of auxin biosynthesis in plants” (Scientific Reports, 2017).

Legend:
[1] = biological target: T1, AtYUC6 (YUC6) (Arabidopsis thaliana, UniProt Q8VZ59); test: competition with photoaffinity probe labelling; assay type: binding; details: active site
T1 construct: purified recombinant
T1 sequence (Q8VZ59 1-417): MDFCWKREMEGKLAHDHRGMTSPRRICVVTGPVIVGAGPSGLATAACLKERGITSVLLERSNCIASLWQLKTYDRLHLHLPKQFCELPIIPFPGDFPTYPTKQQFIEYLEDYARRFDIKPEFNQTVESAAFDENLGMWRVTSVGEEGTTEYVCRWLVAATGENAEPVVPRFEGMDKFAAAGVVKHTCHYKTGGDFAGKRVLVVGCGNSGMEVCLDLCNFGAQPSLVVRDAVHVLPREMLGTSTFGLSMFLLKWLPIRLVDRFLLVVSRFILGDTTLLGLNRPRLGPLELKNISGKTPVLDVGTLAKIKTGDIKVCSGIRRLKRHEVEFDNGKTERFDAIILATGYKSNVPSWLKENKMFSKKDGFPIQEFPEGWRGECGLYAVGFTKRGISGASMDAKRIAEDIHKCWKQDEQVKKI

[2] = biological target: T2, AtYUC1 (AtYUC1-His, YUC1) (Arabidopsis thaliana, UniProt Q9SZY8); test: LC-MS/MS of IAA formed from IPA; assay type: biochemical; details: 20 µM IPA, 40 µM FAD, 1 mM NADPH, 10 mM Tris-HCl pH 7.5, 35 °C, 30 min
T2 construct: recombinant His-tagged, pET-53-DEST, E. coli BL21 Star (DE3), TALON purified, tag kept
T2 sequence (Q9SZY8 1-414): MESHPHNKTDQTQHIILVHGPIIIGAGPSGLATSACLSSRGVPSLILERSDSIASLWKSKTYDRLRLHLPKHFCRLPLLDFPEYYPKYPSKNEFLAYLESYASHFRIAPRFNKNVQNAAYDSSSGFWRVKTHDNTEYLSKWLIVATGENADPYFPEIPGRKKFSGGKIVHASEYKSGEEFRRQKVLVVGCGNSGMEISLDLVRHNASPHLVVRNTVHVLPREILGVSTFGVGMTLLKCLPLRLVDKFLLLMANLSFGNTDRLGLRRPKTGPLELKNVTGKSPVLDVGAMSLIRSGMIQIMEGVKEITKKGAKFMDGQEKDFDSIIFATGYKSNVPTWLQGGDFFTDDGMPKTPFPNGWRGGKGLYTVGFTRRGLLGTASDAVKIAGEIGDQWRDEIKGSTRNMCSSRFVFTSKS

[3] = biological target: T1, AtYUC6 (YUC6); test: photoaffinity labelling, Staudinger-Bertozzi ligation to fluorescent phosphine, SDS-PAGE; assay type: binding; details: 20 µM probe, 254 nm UV, on ice, 10 mM phosphate buffer; active site, competitive with IPA and PPA; covalent; labelled compound

O=C(O)C(=O)Cc1c[nH]c2ccccc12 [IPA]
competition with photoaffinity probe labelling ([1]; 200 µM IPA against 20 µM probe): The fluorescent signal disappeared when the probe was photoactivated in the presence of the substrates

O=C(O)C(=O)Cc1ccccc1 [PPA]
competition with photoaffinity probe labelling ([1]; 200 µM PPA against 20 µM probe): The fluorescent signal disappeared when the probe was photoactivated in the presence of the substrates

Fc1cccc(F)c1-c1n[nH]c(=S)[nH]1 [compound 1, 5-[2,6-difluorophenyl]-2,4-dihydro-[1,2,4]-triazole-3-thione]
enzyme activity at 1 or 10 μM inhibitor [2]: we measured the inhibitory activity of YDF on the recombinant AtYUC1 enzyme

[N-]=[N+]=NCc1cc(N=[N+]=[N-])cc(-c2n[nH]c(=S)[nH]2)c1 [photoaffinity yucasin probe]
photoaffinity labelling, Staudinger-Bertozzi ligation to fluorescent phosphine, [3]: A fluorescent signal from the photoaffinity-labeled probe of YUC6 was detected

S=c1[nH]nc(-c2ccc(Cl)cc2)[nH]1 [yucasin, 5-[4-chlorophenyl]-2,4-dihydro-[1,2,4]-triazole-3-thione]
enzyme activity at 1 or 10 μM inhibitor [2]: Yucasin inhibited the recombinant YUC1 enzyme activity more potent than YDF
